Drawing on US12479830B2, “Homopiperazinyl and homopiperidinyl quinazolin-4(3H)-one derivatives having multimodal activity against pain” (ESTEVE PHARMACEUTICALS, S.A., priority 2019, dated 2025), this text covers Ki for 31 molecules.

For assay [1], the target named is Human α2δ-1 subunit of Cav2.2 calcium channel (Homo sapiens, UniProt P54289). Briefly: Human α2δ-1 subunit of Cav2.2 calcium channel assay ([3H]-gabapentin binding). The following applies: binding to the α2δ-1 subunit of voltage-gated calcium channels, expressed as Ki class; + also covers inhibition between 1% and 50%. The method, boiled down:
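Human α2δ-1 enriched membranes (2.5 μg) incubated 60 min at 27° C. with 15 nM [3H]-gabapentin in 10 mM Hepes-KOH pH 7.4; non-specific binding with 10 μM pregabalin. Filtration binding; % inhibition at 1 or 10 μM, or Ki from five concentrations.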

For a further assay, the target named is T1, Human σ1 receptor (Homo sapiens, UniProt Q99720).
T1 construct: expressed in transfected cells; host or cells: HEK-293
T1 sequence (Q99720 whole entry): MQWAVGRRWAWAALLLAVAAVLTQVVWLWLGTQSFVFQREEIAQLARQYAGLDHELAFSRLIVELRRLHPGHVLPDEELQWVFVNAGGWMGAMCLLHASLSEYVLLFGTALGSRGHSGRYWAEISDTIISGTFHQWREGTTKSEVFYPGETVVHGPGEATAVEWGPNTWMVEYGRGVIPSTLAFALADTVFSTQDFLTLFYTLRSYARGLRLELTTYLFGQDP
Briefly: Human σ1 receptor radioligand assay ([3H](+)-pentazocine binding). Particulars: binding to the σ1 receptor, expressed as Ki class; + also covers inhibition between 1% and 50%. An outline of the steps:
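Membranes (7 μg) were incubated with 5 nM [3H](+)-pentazocine in 50 mM Tris-HCl pH 8 for 120 min at 37° C. Non-specific binding was defined with 10 μM haloperidol. Values are % inhibition at 1 or 10 μM or Ki from five concentrations, read by filtration and scintillation counting.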

Where only a bound is given, the exact number is not on record here.

Chain of Human α2δ-1 subunit of Cav2.2 calcium channel (P54289 25-1103): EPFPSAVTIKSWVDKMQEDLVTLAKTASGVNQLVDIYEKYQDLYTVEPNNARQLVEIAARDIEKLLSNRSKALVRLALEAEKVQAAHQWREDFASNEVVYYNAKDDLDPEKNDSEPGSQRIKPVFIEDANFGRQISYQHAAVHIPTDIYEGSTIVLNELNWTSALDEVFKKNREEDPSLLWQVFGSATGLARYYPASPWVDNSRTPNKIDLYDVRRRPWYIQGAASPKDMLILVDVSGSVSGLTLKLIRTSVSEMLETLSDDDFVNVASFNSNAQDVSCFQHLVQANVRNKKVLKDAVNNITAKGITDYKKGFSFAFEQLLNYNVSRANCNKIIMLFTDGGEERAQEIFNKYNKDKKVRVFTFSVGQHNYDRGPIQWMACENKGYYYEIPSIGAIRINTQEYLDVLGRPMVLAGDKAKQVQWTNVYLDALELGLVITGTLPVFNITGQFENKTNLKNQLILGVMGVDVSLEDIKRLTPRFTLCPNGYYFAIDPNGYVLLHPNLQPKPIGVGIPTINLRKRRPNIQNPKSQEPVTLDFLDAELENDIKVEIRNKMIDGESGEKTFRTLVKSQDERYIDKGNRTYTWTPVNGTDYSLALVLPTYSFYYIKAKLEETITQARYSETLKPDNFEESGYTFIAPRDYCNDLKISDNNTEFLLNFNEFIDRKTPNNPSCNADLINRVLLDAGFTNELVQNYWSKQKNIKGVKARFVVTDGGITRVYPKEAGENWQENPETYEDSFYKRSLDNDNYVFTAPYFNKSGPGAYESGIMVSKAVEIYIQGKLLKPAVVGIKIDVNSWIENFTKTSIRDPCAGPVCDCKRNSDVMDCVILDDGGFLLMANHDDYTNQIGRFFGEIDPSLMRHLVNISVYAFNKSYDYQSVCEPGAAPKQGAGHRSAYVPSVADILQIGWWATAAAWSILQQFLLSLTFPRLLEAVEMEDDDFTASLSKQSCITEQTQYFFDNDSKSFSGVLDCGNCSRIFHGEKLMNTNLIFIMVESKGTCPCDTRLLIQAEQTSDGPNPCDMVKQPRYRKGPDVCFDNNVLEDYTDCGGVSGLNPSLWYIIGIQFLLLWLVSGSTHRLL

In the case of `CCC[C@H](c1nc2ccc(Br)cc2c(=O)n1CC)N1CCN[C@@H](C)CC1` [Example 93, 6-bromo-3-ethyl-2-((R)-1-((S)-5-methyl-1,4-diazepan-1-yl)butyl)quinazolin-4(3H)-one], the inhibition constant Ki (usually the equilibrium dissociation constant of an inhibitor or competing ligand from its target) was under 500 nM in assay [1] and 500 to 1000 nM at Human σ1 receptor.
Turning to `CCC[C@@H](c1nc2ccc(Br)cc2c(=O)n1CC)N1CCN[C@H](C)CC1` [Example 94, 6-bromo-3-ethyl-2-((S)-1-((R)-5-methyl-1,4-diazepan-1-yl)butyl)quinazolin-4(3H)-one], the Ki in assay [1] was 500 to 5000 nM; at Human σ1 receptor, over 1000 nM.
For the molecule `CCC[C@@H](c1nc2ccc(Br)cc2c(=O)n1CC)N1CCN[C@@H](C)CC1` [Example 95, 6-bromo-3-ethyl-2-((S)-1-((S)-5-methyl-1,4-diazepan-1-yl)butyl)quinazolin-4(3H)-one], the figures for the Ki (in assay [1]; at Human σ1 receptor) were over 5000 nM and over 1000 nM, respectively.
With `CCC[C@H](c1nc2cc(F)c(Br)cc2c(=O)n1CC)N1CCNC[C@H](C)C1` [Example 96, 6-Bromo-3-ethyl-7-fluoro-2-((R)-1-((S)-6-methyl-1,4-diazepan-1-yl)butyl)quinazolin-4(3H)-one], the Ki in assay [1] was under 500 nM; on Human σ1 receptor it was 500 to 1000 nM.
As for `CCC[C@H](c1nc2cc(F)c(Br)cc2c(=O)n1CC)N1CCNC[C@@H](C)C1` [Example 97, 6-bromo-3-ethyl-7-fluoro-2-((R)-1-((R)-6-methyl-1,4-diazepan-1-yl)butyl)quinazolin-4(3H)-one], the inhibition constant Ki is under 500 nM in assay [1] and 500 to 1000 nM at Human σ1 receptor.
In the case of `CCC[C@@H](c1nc2cc(F)c(Br)cc2c(=O)n1CC)N1CCNC[C@H](C)C1` [Example 98], the Ki in assay [1] was 500 to 5000 nM; at Human σ1 receptor it was over 1000 nM.
With `CCC[C@@H](c1nc2cc(F)c(Br)cc2c(=O)n1CC)N1CCNC[C@@H](C)C1` [Example 99], the Ki is 500 to 5000 nM in assay [1] and over 1000 nM on Human σ1 receptor.
For `CCCC(c1nc2cccnc2c(=O)n1CC)N1CCCNCC1` (centres unmarked) [Example 100, 2-(1-(1,4-diazepan-1-yl)butyl)-3-ethylpyrido[3,2-d]pyrimidin-4(3H)-one], the Ki in assay [1] was over 5000 nM; on Human σ1 receptor, over 1000 nM.
Taken in the same sequence, the figures for `CCC[C@H](c1nc2ccc(Br)cc2c(=O)n1CC)N1CCN(C)C[C@H](COC)C1` [Example 105, 6-Bromo-3-ethyl-2-((R)-1-((S)-6-(methoxymethyl)-4-methyl-1,4-diazepan-1-yl)butyl)quin-4 (3H)-one] were 500 to 5000 nM and over 1000 nM.
Regarding `CCC[C@H](c1nc2ccc(Br)cc2c(=O)n1CC)N1CCN(C)C[C@@H](COC)C1` [Example 106, 6-bromo-3-ethyl-2-((R)-1-((R)-6-(methoxymethyl)-4-methyl-1,4-diazepan-1-yl)butyl)quinazolin-4(3H)-one], the Ki in assay [1] was under 500 nM; at Human σ1 receptor, over 1000 nM.
The corresponding values for `CCC[C@@H](c1nc2ccc(Br)cc2c(=O)n1CC)N1CCN(C)C[C@H](COC)C1` [Example 107, 6-bromo-3-ethyl-2-((S)-1-((S)-6-(methoxymethyl)-4-methyl-1,4-diazepan-1-yl)butyl)quinazolin-4(31-)-one] are 500 to 5000 nM and 500 to 1000 nM.
With `CCC[C@@H](c1nc2ccc(Br)cc2c(=O)n1CC)N1CCN(C)C[C@@H](COC)C1` [Example 108, 6-bromo-3-ethyl-2-((S)-1-((R)-6-(methoxymethyl)-4-methyl-1,4-diazepan-1-yl)butyl)quinazolin-4(3/1)-one], the inhibition constant Ki is over 5000 nM in assay [1] and 500 to 1000 nM at Human σ1 receptor.
As for `CCC[C@H](c1nc2cc(Cl)c(Cl)cc2c(=O)n1CC)N1CCNC[C@H](C)C1` [Example 109, 6,7-Dichloro-3-ethyl-2-((R)-1-((S)-6-methyl-1,4-diazepan-1-yl)butyl)quinazolin-4(3H)-one], the inhibition constant (Ki) in assay [1] was under 500 nM; at Human σ1 receptor, over 1000 nM.
`CCC[C@H](c1nc2cc(Cl)c(Cl)cc2c(=O)n1CC)N1CCNC[C@@H](C)C1` [Example 110, 6,7-dichloro-3-ethyl-2-((R)-1-((R)-6-methyl-1,4-diazepan-1-yl)butyl)quinazolin-4(3H)-one]: the Ki in assay [1] was under 500 nM; at Human σ1 receptor, over 1000 nM.
For `CCC[C@@H](c1nc2cc(Cl)c(Cl)cc2c(=O)n1CC)N1CCNC[C@H](C)C1` [Example 111, 6,7-dichloro-3-ethyl-2-((S)-1-((S)-6-methyl-1,4-diazepan-1-yl)butyl)quinazolin-4(3H)-one], the values for the Ki (in assay [1]; at Human σ1 receptor) were 500 to 5000 nM and over 1000 nM, respectively.
Consider `CCC[C@@H](c1nc2cc(Cl)c(Cl)cc2c(=O)n1CC)N1CCNC[C@@H](C)C1` [Example 112, 6,7-dichloro-3-ethyl-2-((S)-1-((R)-6-methyl-1,4-diazepan-1-yl)butyl)quinazolin-4 (3H)-one], for which the results for the Ki (in assay [1]; at Human σ1 receptor) were over 5000 nM and over 1000 nM, respectively.
On to `CCC[C@@H](c1nc2ccc(Br)cc2c(=O)n1CC)N1CCNC[C@@H](O)C1` [Example 113, 6-Bromo-3-ethyl-2-((S)-1-((R)-6-hydroxy-1,4-diazepan-1-yl)butyl)quinazolin-4(3H)-one], for which the Ki in assay [1] is over 5000 nM; on Human σ1 receptor, over 1000 nM.
Taken in the same sequence, the figures for `CCC[C@H](c1nc2ccc(Br)cc2c(=O)n1CC)N1CCNC[C@@H](O)C1` [Example 114, 6-bromo-3-ethyl-2-((R)-1-((R)-6-hydroxy-1,4-diazepan-1-yl)butyl)quinazolin-4(3H)-one] were under 500 nM and over 1000 nM.
Consider `CCC[C@@H](c1nc2ccc(Br)cc2c(=O)n1CC)N1CCNC[C@H](O)C1` [Example 115, 6-bromo-3-ethyl-2-((S)-1-((S)-6-hydroxy-1,4-diazepan-1-yl)butyl)quinazolin-4(3H)-one], for which the values for the Ki (in assay [1]; on Human σ1 receptor) were over 5000 nM and over 1000 nM, respectively.
In the case of `CCC[C@H](c1nc2ccc(Br)cc2c(=O)n1CC)N1CCNC[C@H](O)C1` [Example 116, 6-bromo-3-ethyl-2-((R)-1-((S)-6-hydroxy-1,4-diazepan-1-yl)butyl)quinazolin-4(3H)-one], the Ki in assay [1] was under 500 nM; on Human σ1 receptor, over 1000 nM.
Consider `CCCC(c1nc2c(F)cc(OC)cc2c(=O)n1CC)N1CCCN(C)CC1` (centres unmarked) [Example 117, 3-ethyl-8-fluoro-6-methoxy-2-(1-(4-methyl-1,4-diazepan-1-yl)butyl)quinazolin-4(3H)-one], for which the Ki in assay [1] is 500 to 5000 nM; at Human σ1 receptor, 500 to 1000 nM.
Take `CCC[C@H](c1nc2cc(F)c(Cl)cc2c(=O)n1CC)N1CCNC[C@H](C)C1` [Example 118, 6-Chloro-3-ethyl-7-fluoro-2-((R)-1-((S)-6-methyl-1,4-diazepan-1-yl)butyl)quinazolin-4(3H)-one]: the Ki was under 500 nM in assay [1] and 500 to 1000 nM at Human σ1 receptor.
Take `CCC[C@H](c1nc2cc(F)c(Cl)cc2c(=O)n1CC)N1CCNC[C@@H](C)C1` [Example 119, 6-chloro-3-ethyl-7-fluoro-2-((R)-1-((R)-6-methyl-1,4-diazepan-1-yl)butyl)quinazolin-4(3H)-one]: the Ki in assay [1] is under 500 nM; at Human σ1 receptor, 500 to 1000 nM.
Take `CCC[C@@H](c1nc2cc(F)c(Cl)cc2c(=O)n1CC)N1CCNC[C@H](C)C1` [Example 120, 6-chloro-3-ethyl-7-fluoro-2-((S)-1-((S)-6-methyl-1,4-diazepan-1-yl)butyl)quinazolin-4(3H)-one]: the Ki in assay [1] is over 5000 nM; on Human σ1 receptor, over 1000 nM.
On to `CCC[C@@H](c1nc2cc(F)c(Cl)cc2c(=O)n1CC)N1CCNC[C@@H](C)C1` [Example 121, 6-chloro-3-ethyl-7-fluoro-2-((S)-1-((R)-6-methyl-1,4-diazepan-1-yl)butyl)quinazolin-4 (3H)-one], for which the inhibition constant (Ki) was over 5000 nM in assay [1] and over 1000 nM on Human σ1 receptor.
For the molecule `CCCC(c1nc2ccc(Br)cc2c(=O)[nH]1)N1CCCN(C)CC1` (centres unmarked) [Example 122, 6-bromo-2-(1-(4-methyl-1,4-diazepan-1-yl)butyl)quinazolin-4(3H)-one], the Ki in assay [1] is over 5000 nM; on Human σ1 receptor it was 500 to 1000 nM.
The corresponding values for `CCC[C@H](c1nc2ccc(Br)cc2c(=O)n1CC)N1CCN(C)C[C@H](CO)C1` [Example 123, 6-Bromo-3-ethyl-2-((R)-1-((S)-6-(hydroxymethyl)-4-methyl-1,4-diazepan-1-yl)butyl)quinazolin-4(3H)-one] are under 500 nM and 500 to 1000 nM.
Take `CCC[C@@H](c1nc2ccc(Br)cc2c(=O)n1CC)N1CCN(C)C[C@@H](CO)C1` [Example 124, 6-bromo-3-ethyl-2-((S)-1-((R)-6-(hydroxymethyl)-4-methyl-1,4-diazepan-1-yl)butyl)quinazolin-4(3H)-one]: the Ki in assay [1] was 500 to 5000 nM; on Human σ1 receptor it was over 1000 nM.
`CCC[C@H](c1nc2ccc(Br)cc2c(=O)n1CC)N1CCN(C)C[C@@H](CO)C1` [Example 125, 6-bromo-3-ethyl-2-((R)-1-((R)-6-(hydroxymethyl)-4-methyl-1,4-diazepan-1-yl)butyl)quinazolin-4(3H)-one]: the Ki lay in the range of 500 to 5000 nM in assay [1] and 500 to 1000 nM on Human σ1 receptor.
Regarding `CCC[C@@H](c1nc2ccc(Br)cc2c(=O)n1CC)N1CCN(C)C[C@H](CO)C1` [Example 126, 6-bromo-3-ethyl-2-((S)-1-((S)-6-(hydroxymethyl)-4-methyl-1,4-diazepan-1-yl)butyl)quinazolin-4(3H)-one], the inhibition constant Ki in assay [1] lay within 500 to 5000 nM; at Human σ1 receptor, 500 to 1000 nM.
Taken in the same sequence, the figures for `CCC[C@H](c1nc2cc(F)c(Br)cc2c(=O)n1CC)N1CCN(C)C[C@H](C)C1` [Example 127, 6-Bromo-2-((R)-1-((S)-4,6-dimethyl-1,4-diazepan-1-yl)butyl)-3-ethyl-7-fluoroquinazolin-4(3H)-one] were under 500 nM and 500 to 1000 nM.
